Article PMC7914897, “Cytotoxic Potential of a-Azepano- and 3-Amino-3,4-SeCo-Triterpenoids” (International Journal of Molecular Sciences, 2021)

Tests used:
[1] = test system: A2780 (ovarian carcinoma); test: SRB cytotoxicity assay, 72 h; type: cell-based, human; details: Homo sapiens; A2780, 72 h, cut-off 30 µM; read-out: EC50
In short: (§1)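 Seed, 24 h; compound 0–30 µM serial dilutions, 72 h (DMSO ≤0.5%); fix 10% TCA, 4 °C; stain 0.4% SRB ~20 min; 1% AcOH wash; solubilise 10 mM Tris; A570. EC50 vs untreated.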

[2] = test system: A375 (malignant melanoma); test: SRB cytotoxicity assay, 72 h; type: cell-based, human; details: Homo sapiens, A-375, 72 h, A375, 72 h, cut-off 30 µM; read-out: EC50
In short: as §1

[3] = test system: FaDu (hypopharyngeal carcinoma); test: SRB cytotoxicity assay, 72 h; type: cell-based, human; details: Homo sapiens, cut-off 30 µM, read-out: EC50
In short: as §1

[4] = test system: HT29 (colorectal carcinoma); test: SRB cytotoxicity assay, 72 h; type: cell-based, human; details: Homo sapiens, HT-29; HT29, 72 h, cut-off 30 µM; read-out: EC50
In short: as §1

[5] = test system: MCF-7 (breast carcinoma); test: SRB cytotoxicity assay, 72 h; type: cell-based, human; details: Homo sapiens, MCF7; MCF-7, 72 h, cut-off 30 µM; read-out: EC50
In short: as §1

[6] = test system: NIH 3T3 (non-malignant mouse fibroblasts); test: SRB cytotoxicity assay, 72 h; type: cell-based; details: Mus musculus, NIH3T3; NIH 3T3, 72 h, cut-off 30 µM; read-out: EC50
In short: as §1

[7] = test system: Melanoma subpanel; test: NCI-60 screen, subpanel; details: Homo sapiens; for IC (TGI): 48 h, read-out: TGI MG_MID; for GI50: read-out: GI50 MG_MID; for CC50: read-out: LC50 MG_MID
[8] = test system: Ovarian Cancer subpanel; test: NCI-60 screen, subpanel; details: Homo sapiens; for IC (TGI): 48 h, read-out: TGI MG_MID; for GI50: read-out: GI50 MG_MID; for CC50: read-out: LC50 MG_MID
[9] = test system: CCRF-CEM (Leukemia); test: NCI-60 screen (SRB, 48 h); details: Homo sapiens
[10] = test system: A549/ATCC (NSC lung cancer); test: NCI-60 screen (SRB, 48 h); details: Homo sapiens; for GI50: A549
[11] = test system: HOP-62 (NSC lung cancer); test: NCI-60 screen (SRB, 48 h); details: Homo sapiens; for GI50: HOP-62
[12] = test system: NCI-H522 (NSC lung cancer); test: NCI-60 screen (SRB, 48 h); details: Homo sapiens; for GI50: NCI-H522; for IC (TGI): NCI-H522, 48 h, read-out: TGI
[13] = test system: HCT-116 (Colon cancer); test: NCI-60 screen (SRB, 48 h); details: Homo sapiens; for GI50: HCT-116; for activity at 10 µM / IC (TGI): HCT-116, 48 h; for activity at 10 µM: read-out: Growth % of the Most Sensitive Cell Lines; for IC (TGI): read-out: TGI; for CC50: HCT-116, read-out: LC50
[14] = test system: HT29 (Colon cancer); test: NCI-60 screen (SRB, 48 h); details: Homo sapiens; for GI50: HT-29
[15] = test system: SW-620 (Colon cancer); test: NCI-60 screen (SRB, 48 h); details: Homo sapiens; for GI50: SW-620; for IC (TGI): SW-620, 48 h, read-out: TGI; for CC50: SW-620, read-out: LC50
[16] = test system: SF-268 (CNS cancer); test: NCI-60 screen (SRB, 48 h); details: Homo sapiens; for GI50: SF-268
[17] = test system: SNB-75 (CNS cancer); test: NCI-60 screen (SRB, 48 h); details: Homo sapiens; for GI50: SNB-75; for IC (TGI): SNB-75, 48 h, read-out: TGI
[18] = test system: UACC-62 (Melanoma); test: NCI-60 screen (SRB, 48 h); details: Homo sapiens; for GI50: UACC-62; for IC (TGI): UACC-62, 48 h, read-out: TGI; for CC50: UACC-62, read-out: LC50
[19] = test system: 786-0 (Renal cancer); test: NCI-60 screen (SRB, 48 h); details: Homo sapiens; for GI50: 786-0; for IC (TGI): 786-0, 48 h, read-out: TGI
[20] = test system: A498 (Renal cancer); test: NCI-60 screen (SRB, 48 h); details: Homo sapiens; for GI50: A498; for IC (TGI): A498, 48 h, read-out: TGI; for CC50: A498, read-out: LC50
[21] = test system: ACHN (Renal cancer); test: NCI-60 screen (SRB, 48 h); details: Homo sapiens; for IC (TGI): 48 h, read-out: TGI
[22] = test system: TK-10 (Renal cancer); test: NCI-60 screen (SRB, 48 h); details: Homo sapiens; for GI50: TK-10; for IC (TGI): TK-10, 48 h, read-out: TGI
[23] = test system: DU-145 (Prostate cancer); test: NCI-60 screen (SRB, 48 h); details: Homo sapiens; for GI50: DU-145; for IC (TGI): DU-145, 48 h, read-out: TGI
[24] = test system: T-47D (Breast cancer); test: NCI-60 screen (SRB, 48 h); details: Homo sapiens, T47D; for IC (TGI): 48 h, read-out: TGI

For `C[C@H]1[C@H](C)CC[C@]2(C(=O)Nc3ccc4ncccc4c3)CC[C@]3(C)C(=CC[C@@H]4[C@@]5(C)CCCNC(C)(C)[C@@H]5CC[C@]43C)[C@H]12` [Compound 14], the EC50 [1] was 1.8 ± 0.1 µM, the EC50 [2] was 1.57 ± 0.8 µM and the EC50 [3] was 1.79 ± 0.2 µM. The EC50 [4] was 1.55 ± 0.1 µM, the EC50 [5] was 1.64 ± 0.1 µM and the EC50 [6] was 1.69 ± 0.1 µM. The IC (TGI) [7] was 3.32 µM, the GI50 [7] was 1.77 µM and the CC50 [7] was 6.25 µM. For the same molecule, the IC (TGI) [8] was 3.3 µM, the GI50 [8] was 1.77 µM and the CC50 [8] was 6.69 µM. The GI50 [9] was 1.67 µM, the GI50 [10] was 1.81 µM and the GI50 [11] was 1.76 µM. For the same molecule, the GI50 [12] was 1.75 µM, the IC (TGI) [12] was 3.33 µM and the GI50 [13] was 1.6 µM. For the same molecule, the activity at 10 µM [13] was -100%, the IC (TGI) [13] was 3.11 µM and the CC50 [13] was 6.05 µM. It also gave a GI50 [14] of 1.59 µM, a GI50 [15] of 1.8 µM and an IC (TGI) [15] of 3.37 µM. For the same molecule, the CC50 [15] was 6.31 µM, the GI50 [16] was 1.73 µM and the GI50 [17] was 1.52 µM. It also gave an IC (TGI) [17] of 3.09 µM, a GI50 [18] of 1.74 µM and an IC (TGI) [18] of 3.23 µM. It also gave a CC50 [18] of 6 µM, a GI50 [19] of 1.85 µM and an IC (TGI) [19] of 3.48 µM. For the same molecule, the GI50 [20] was 1.56 µM, the IC (TGI) [20] was 2.96 µM and the CC50 [20] was 5.6 µM. For the same molecule, the GI50 [21] was 1.77 µM, the IC (TGI) [21] was 3.24 µM and the GI50 [22] was 1.69 µM. For the same molecule, the IC (TGI) [22] was 3.2 µM, the GI50 [23] was 1.76 µM and the IC (TGI) [23] was 3.28 µM. For the same molecule, the GI50 [24] was 1.67 µM and the IC (TGI) [24] was 3.64 µM.
Work on `C[C@H]1[C@H](C)CC[C@]2(CO)CC[C@]3(C)C(=CC[C@@H]4[C@@]5(C)CCCNC(C)(C)[C@@H]5CC[C@]43C)[C@H]12` [Compound 4, azepanouvaol] yielded an EC50 [1] of 2.63 ± 0.1 µM, an EC50 [2] of 2.4 ± 0.2 µM and an EC50 [3] of 1.69 ± 0.4 µM. It also gave an EC50 [4] of 1.71 ± 0.3 µM, an EC50 [5] of 2.3 ± 0.2 µM and an EC50 [6] of 2.77 ± 0.4 µM. For the same molecule, the IC (TGI) [7] was 3.32 µM, the GI50 [7] was 1.74 µM and the CC50 [7] was 6.36 µM. The IC (TGI) [8] was 3.59 µM, the GI50 [8] was 1.91 µM and the CC50 [8] was 11.4 µM. For the same molecule, the GI50 [9] was 1.74 µM, the IC (TGI) ([9]; 48 h, read-out: TGI) was 3.93 µM and the CC50 ([9]; read-out: LC50) was 8.88 µM. It also gave a GI50 [10] of 1.74 µM, an IC (TGI) ([10]; A549, 48 h, read-out: TGI) of 3.28 µM and a CC50 ([10]; A549, read-out: LC50) of 6.16 µM. It also gave a GI50 [11] of 1.81 µM, an IC (TGI) ([11]; HOP-62, 48 h, read-out: TGI) of 3.49 µM and a CC50 ([11]; HOP-62, read-out: LC50) of 6.52 µM. The GI50 [12] was 1.71 µM, the IC (TGI) [12] was 3.32 µM and the CC50 ([12]; NCI-H522, read-out: LC50) was 6.43 µM. For the same molecule, the GI50 [13] was 1.49 µM, the activity at 10 µM [13] was -94.7% and the IC (TGI) [13] was 2.81 µM. It also gave a CC50 [13] of 5.31 µM, a GI50 [14] of 0.63 µM and an IC (TGI) ([14]; HT-29, 48 h, read-out: TGI) of 1.97 µM. For the same molecule, the CC50 ([14]; HT-29, read-out: LC50) was 4.85 µM, the GI50 [15] was 1.79 µM and the IC (TGI) [15] was 3.54 µM. It also gave a CC50 [15] of 7.03 µM, a GI50 [16] of 1.79 µM and an IC (TGI) ([16]; SF-268, 48 h, read-out: TGI) of 3.5 µM. For the same molecule, the CC50 ([16]; SF-268, read-out: LC50) was 6.84 µM, the GI50 [17] was 1.49 µM and the IC (TGI) [17] was 2.9 µM. The CC50 ([17]; SNB-75, read-out: LC50) was 5.63 µM, the GI50 [18] was 1.85 µM and the IC (TGI) [18] was 3.35 µM. The CC50 [18] was 6.06 µM, the GI50 [19] was 1.6 µM and the IC (TGI) [19] was 3.06 µM. The CC50 ([19]; 786-0, read-out: LC50) was 5.85 µM, the GI50 [20] was 1.63 µM and the IC (TGI) [20] was 3.29 µM. For the same molecule, the CC50 [20] was 6.63 µM, the GI50 [21] was 1.69 µM and the IC (TGI) [21] was 3.06 µM. For the same molecule, the CC50 ([21]; read-out: LC50) was 5.54 µM, the GI50 [22] was 1.84 µM and the IC (TGI) [22] was 3.32 µM. It also gave a CC50 ([22]; TK-10, read-out: LC50) of 5.97 µM, a GI50 [23] of 1.72 µM and an IC (TGI) [23] of 3.14 µM. The CC50 ([23]; DU-145, read-out: LC50) was 5.75 µM, the GI50 [24] was 1.68 µM and the IC (TGI) [24] was 4.03 µM. The CC50 ([24]; read-out: LC50) was 9.66 µM.
